The source of these data is publication PMC2707616, “Platensimycin Activity against Mycobacterial β-Ketoacyl-ACP Synthases” (PLoS ONE, 2009).

Data set [1] has as its system M. bovis BCG. Kind of data set: microbe, parasite or virus in culture. The data set is classed as cell-based.
Data set [2] relates to M. tuberculosis H37Rv. The data set can be described thus: microbe, parasite or virus in culture. It counts as cell-based. The settings on record: Mycobacterium tuberculosis, solid medium.
Data set [3] deals with S. aureus FabH. The arrangement: method as in PMID 17456595. Conditions: S. aureus FabH ref 2; cited from earlier work.
Data set [4] deals with M. tuberculosis CDC1551. Kind of data set: microbe, parasite or virus in culture. The data set is classed as cell-based. The settings on record: Mycobacterium tuberculosis; M. tuberculosis CDC1551, solid medium.
In data set [5] the test system is M. bovis BCG pVV16- KasB. Kind of data set: microbe, parasite or virus in culture. The data set is classed as cell-based. The settings on record: Mycobacterium tuberculosis variant bovis BCG.
The subject of data set [6] is HeLa. The settings on record: mammalian cell toxicity ref 3; cited from earlier work.
The test system of data set [7] is Cg-FAS-I. The data set can be described thus: FAS-I activity in crude cell free extracts. The data set is classed as biochemical, C. glutamicum. Conditions: crude cell free extract, standard error in brackets. The method, then: FAS-I extracts from M. smegmatis and C. glutamicum were prepared as described previously. FAS-I experiments were conducted as described using the 40–80% ammonium sulfate fraction. Briefly, platensimycin was titred (0.1–150 µg/ml) into the standard reaction as follows: 100 mM potassium phosphate pH 7.0, 5 mM EDTA, 5 mM dithiothreitol, 300 µM acetyl-CoA, 100 µM NADPH, 100 µM NADH, 1 µM flavin mononucleotide, 500 µM α-cyclodextrin, 20 µM malonyl-CoA, 100,000 cpm of [2-^14C] malonyl-CoA, and 100 µl of the cytosolic enzyme preparation (1 mg of protein) in a total volume of 500 µl. Reactions were performed in triplicate at 37°C for 1 h and terminated by the addition of 500 µl of 20% potassium hydroxide in 50% methanol at 100°C for 30 min. Following acidification with 300 µl of 6 M HCl, the resultant [^14C]-labelled fatty acids were extracted three times with petroleum ether. The organic extracts were pooled, washed once with an equal volume of water, and dried in a scintillation vial prior to scintillation counting using 5 ml of EcoScintA (National Diagnostics, Hull, U.K.).

In data set [8] the test system is rat FAS-I. Details: method as in earlier work. The settings on record: cited from earlier work.
In data set [9] the test system is M. smegmatis. The data set can be described thus: Growth and viable count (CFU) of cultures over 72 h, revival after washing. The data set is classed as cell-based, Mycobacterium smegmatis.
For data set [10], the target named is T1, Mt-FabH (Mycobacterium tuberculosis, UniProt P9WNG3).
T1 construct: made in house
The data set can be described thus: biochemical.

Data set [11] addresses T2, Mt-KasB (Mycobacterium tuberculosis, UniProt P9WQD7).
T2 construct: made in house
The data set can be described thus: biochemical.

The test system of data set [12] is M. bovis BCGΔ KasB. The data set is classed as cell-based, Mycobacterium bovis BCG.
Data set [13] concerns M. smegmatis pVV16- KasA. Kind of data set: microbe, parasite or virus in culture. It counts as cell-based, Mycobacterium smegmatis.
Data set [14] has as its target T3, Mt-KasA (Mycobacterium tuberculosis, UniProt P9WQD9).
T3 construct: made in house
Kind of data set: biochemical.

The subject of data set [15] is C. glutamicum. The data set can be described thus: Growth of cultures. It counts as cell-based. Conditions: data not shown.
In data set [16] the test system is M. bovis BCG pVV16- KasA. Kind of data set: microbe, parasite or virus in culture. The data set is classed as cell-based. Conditions: Mycobacterium tuberculosis variant bovis BCG.
Data set [17] deals with human FAS-I. The arrangement: method as in earlier work. The settings on record: cited from earlier work.
Data set [18] deals with M. smegmatis mc^2155. The data set can be described thus: MIC99 by Alamar Blue testing, liquid medium. The data set is classed as cell-based, Mycobacterium smegmatis. The settings on record: Mycolicibacterium smegmatis. A general note: Alamar Blue is a resazurin reagent that responds to reducing activity.
The subject of data set [19] is Candida albicans. The arrangement: method as in PMID 16710421. Conditions: cited from earlier work.
The subject of data set [20] is M. bovis BCG pVV16. The data set can be described thus: microbe, parasite or virus in culture. The data set is classed as cell-based. Conditions: Mycobacterium tuberculosis variant bovis BCG.
In data set [21] the test system is M. smegmatis mc^2155. The data set is classed as cell-based, Mycobacterium smegmatis.
For data set [22], the system named is M. smegmatis pVV16- FabH. Kind of data set: microbe, parasite or virus in culture. It counts as cell-based, Mycobacterium smegmatis. The settings on record: Mycolicibacterium smegmatis, PVV16FABH.
The subject of data set [23] is M. smegmatis pVV16- KasAB. The data set can be described thus: microbe, parasite or virus in culture. The data set is classed as cell-based, Mycobacterium smegmatis. Conditions: Mycolicibacterium smegmatis, PVV16KASAB.
Data set [24] concerns M. smegmatis pVV16- KasB. The data set can be described thus: microbe, parasite or virus in culture. The data set is classed as cell-based, Mycobacterium smegmatis.
The test system of data set [25] is M. smegmatis pVV16. Kind of data set: MIC99 by Alamar Blue testing, vector control strain. It counts as cell-based, Mycobacterium smegmatis. The settings on record: Mycolicibacterium smegmatis.
Data set [26] has as its system KasA. Conditions: cited from earlier work.
The subject of data set [27] is KasB. The settings on record: KasB ref 25; cited from earlier work.

pIC50: −log10 of the molar value. In brackets after ≈: the same amount, converted by molar mass. Like-named read-outs stand apart in the source and are kept apart here.

T2 sequence (P9WQD7 whole entry): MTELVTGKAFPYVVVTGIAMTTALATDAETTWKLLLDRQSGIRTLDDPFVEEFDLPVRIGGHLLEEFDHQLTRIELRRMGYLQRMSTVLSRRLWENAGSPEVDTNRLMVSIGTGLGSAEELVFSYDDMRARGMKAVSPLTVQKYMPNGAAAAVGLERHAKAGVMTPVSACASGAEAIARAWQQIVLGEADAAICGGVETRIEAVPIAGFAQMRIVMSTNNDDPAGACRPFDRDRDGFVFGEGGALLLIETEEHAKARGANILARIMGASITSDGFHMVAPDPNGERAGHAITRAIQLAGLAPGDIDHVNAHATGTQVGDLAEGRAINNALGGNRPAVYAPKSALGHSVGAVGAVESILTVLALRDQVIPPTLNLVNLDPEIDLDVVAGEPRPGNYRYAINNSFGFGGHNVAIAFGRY
T3 sequence (P9WQD9 whole entry): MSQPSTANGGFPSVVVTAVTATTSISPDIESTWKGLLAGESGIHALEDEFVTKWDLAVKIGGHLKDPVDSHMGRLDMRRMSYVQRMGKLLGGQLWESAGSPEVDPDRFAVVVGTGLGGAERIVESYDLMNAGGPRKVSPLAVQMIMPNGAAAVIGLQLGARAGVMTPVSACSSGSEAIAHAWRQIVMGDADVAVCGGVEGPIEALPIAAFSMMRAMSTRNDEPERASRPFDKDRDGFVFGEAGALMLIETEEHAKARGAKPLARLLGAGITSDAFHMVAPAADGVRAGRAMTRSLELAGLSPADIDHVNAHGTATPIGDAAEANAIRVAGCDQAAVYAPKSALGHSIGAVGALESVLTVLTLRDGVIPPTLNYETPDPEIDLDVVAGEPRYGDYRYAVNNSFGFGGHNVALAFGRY
T1 sequence (P9WNG3 whole entry): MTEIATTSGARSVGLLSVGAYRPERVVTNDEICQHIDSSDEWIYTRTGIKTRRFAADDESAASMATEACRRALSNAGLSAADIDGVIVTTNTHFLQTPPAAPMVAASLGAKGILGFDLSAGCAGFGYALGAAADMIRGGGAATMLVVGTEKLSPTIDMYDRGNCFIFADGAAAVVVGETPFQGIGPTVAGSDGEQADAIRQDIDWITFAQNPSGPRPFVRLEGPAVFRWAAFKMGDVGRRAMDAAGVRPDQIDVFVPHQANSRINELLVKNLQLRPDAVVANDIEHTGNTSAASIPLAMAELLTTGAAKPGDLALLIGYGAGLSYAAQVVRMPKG

For the compound `CC12C[C@@]34C=CC(=O)[C@@](C)(CCC(=O)Nc5c(O)ccc(C(=O)O)c5O)C3[C@H](CC1C4)O2` (stereo partly drawn) [platensimycin], the MIC99 is above 128 µg/mL in [1]; above 128 µg/mL in data set [1] (Mycobacterium tuberculosis variant bovis BCG, read-out: MIC99); 12 µg/mL (≈ 27.2 µM) in data set [2]; 12 µg/mL (≈ 27.2 µM) in data set [4]; above 128 µg/mL in data set [5]; 61 µg/mL (≈ 138 µM) in data set [12]. For the same compound, the MIC99 in [13] (Mycolicibacterium smegmatis, PVV16KASA, M. smegmatis pVV16- KasA) is 30 µg/mL (≈ 68 µM); in data set [16], above 128 µg/mL; in data set [18] it was 14 µg/mL (≈ 31.7 µM); in data set [20], above 128 µg/mL; in data set [22] it was 16 µg/mL (≈ 36.2 µM); in data set [23], 126 µg/mL (≈ 285 µM). The MIC99 in data set [24] (Mycolicibacterium smegmatis, PVV16KASB, M. smegmatis pVV16- KasB) came to 124 µg/mL (≈ 281 µM); in data set [25], 14 µg/mL (≈ 31.7 µM). The pIC50 (commonly the IC50 on a negative log10 scale, so that one unit is a factor of ten) was 4.17 in data set [3]; below 3.47 in data set [10]; 5.02 in data set [11]; 5.02 in data set [11] (standard error in brackets); 5.34 in [14]; 5.34 in [14] (standard error in brackets). Besides, in [6], the “IC50 of HeLa MTT” value is above 1000 µg/mL. The IC50 in data set [7] is reported as 6.5 (0.2) µg/ml. Further, the “rat FAS-I inhibition in vitro” value in [8] is on record as “inhibited”. Besides, in data set [9] (14 µg/ml platensimycin, 72 hours, LB broth), the “decrease in CFU” value is listed as 2 log. Besides, the “nature of the antibiotic effect (revival after washing and re-inoculation)” value in [9] (cells exposed for 72 hours) is recorded as “bacteristatic”. In addition, the “increase in resistance (MIC) on Mt-KasA overexpression” value in data set [13] (MIC from 14 to 30 µg/ml) is listed as 2 fold. Besides, the “growth of cultures of C. glutamicum” value in data set [15] was “failed to inhibit growth”. Besides, in data set [17], the “human FAS-I inhibition in vitro” value is “inhibited”. Further, in data set [19], the “antifungal activity against Candida albicans” value was above 64 µg/mL. The “Biosynthesis of fatty acids and α- and epoxy-mycolic acids” value in data set [21] (20–40 µg/ml, [14C]acetate labelling) is “significantly inhibited”. The “α′-MAMEs level” value in [21] (lower concentrations, 10–20 µg/ml) is “accumulation”. Further, in data set [21] (platensimycin-treated cultures, 20-40 µg/ml), the “synthesis of mycolate containing lipids GMM and TDM” value is “reduced”. In data set [24] (MIC to 124 µg/ml), the “increase in the MIC on Mt-KasB overexpression” value was determined as 9 fold.
As to `C=C/C(C)=C/[C@@]1(C)SC(=O)C(C)=C1O` [TLM, thiolactomycin], the pIC50 in data set [26] was 4.70; in [27], 4.05.
As to `C=C1C[C@@]23C=CC(=O)[C@@](C)(CCC(=O)Nc4c(O)ccc(C(=O)O)c4O)[C@@H]2C[C@@H]1CC3` [platencin], in data set [3], the pIC50 is 5.04.
